The target in one assay is T1, HDAC1 (Homo sapiens, UniProt Q13547).
T1 construct: purchased Enzolifesciences BML-AK511
As to the kind of experiment: HDAC enzyme activity inhibition (in vitro), HDAC1 Fluorimetric Drug Discovery Assay Kit. The assay is classed as biochemical. As to conditions: samples at 100, 1000 and 10000 nM; 37° C. 60 minutes; fluorescence Ex 390, Em 460; read-out: HDAC1 IC50. An outline of the steps: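 Fluorimetric read-out (Ex 390, Em 460) after a 60 min 37° C enzyme reaction and 30 min 37° C developer step. Tested levels: 0.1-1000 nM (0.1, 1, 10, 100, 1000) on recombinant human HDAC6; 100, 1000 and 10000 nM on HDAC1 kit enzyme.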

The next assay has as its target T2, HDAC6 human recombinant (Homo sapiens, UniProt Q9UBN7).
T2 construct: purchased Calbiochem 382180
T2 sequence (Q9UBN7 1-1215): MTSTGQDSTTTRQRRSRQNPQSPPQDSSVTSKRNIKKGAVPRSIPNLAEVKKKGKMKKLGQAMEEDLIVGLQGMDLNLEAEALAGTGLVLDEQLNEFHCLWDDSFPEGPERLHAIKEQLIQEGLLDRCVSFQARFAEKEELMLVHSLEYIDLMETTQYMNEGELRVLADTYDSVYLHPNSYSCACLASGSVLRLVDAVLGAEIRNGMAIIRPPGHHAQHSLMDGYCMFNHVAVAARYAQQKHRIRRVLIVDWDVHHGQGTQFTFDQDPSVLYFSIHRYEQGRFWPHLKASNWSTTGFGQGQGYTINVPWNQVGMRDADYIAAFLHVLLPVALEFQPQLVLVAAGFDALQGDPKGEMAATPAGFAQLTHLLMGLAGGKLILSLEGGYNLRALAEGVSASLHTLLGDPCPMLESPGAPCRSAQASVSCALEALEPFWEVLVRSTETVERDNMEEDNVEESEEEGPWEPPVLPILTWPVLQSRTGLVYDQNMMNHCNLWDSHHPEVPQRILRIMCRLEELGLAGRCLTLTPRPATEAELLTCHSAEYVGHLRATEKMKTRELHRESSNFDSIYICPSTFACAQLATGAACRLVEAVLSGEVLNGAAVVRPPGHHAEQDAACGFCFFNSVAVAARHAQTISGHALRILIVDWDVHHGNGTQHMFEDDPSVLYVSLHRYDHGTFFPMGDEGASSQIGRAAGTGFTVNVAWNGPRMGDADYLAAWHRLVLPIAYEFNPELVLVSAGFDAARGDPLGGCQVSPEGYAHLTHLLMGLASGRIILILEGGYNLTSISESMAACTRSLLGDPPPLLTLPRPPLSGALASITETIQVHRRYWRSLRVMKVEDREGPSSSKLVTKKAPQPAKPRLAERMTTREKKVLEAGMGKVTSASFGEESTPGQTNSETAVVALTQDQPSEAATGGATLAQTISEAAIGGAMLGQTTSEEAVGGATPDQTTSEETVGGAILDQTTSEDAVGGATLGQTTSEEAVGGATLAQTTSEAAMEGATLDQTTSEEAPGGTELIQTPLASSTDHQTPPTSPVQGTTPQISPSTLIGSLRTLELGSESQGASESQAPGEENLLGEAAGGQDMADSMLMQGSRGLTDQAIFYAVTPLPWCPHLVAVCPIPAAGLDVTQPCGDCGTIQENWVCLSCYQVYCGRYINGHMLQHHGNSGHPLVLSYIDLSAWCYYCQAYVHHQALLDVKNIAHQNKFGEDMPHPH
As to the kind of experiment: HDAC enzyme activity inhibition (in vitro), HDAC6 assay. The assay is classed as biochemical. The note with it: samples at 0.1, 1, 10, 100 and 1000 nM; 37° C. 60 minutes; fluorescence Ex 390, Em 460; read-out: HDAC6 IC50. An outline of the steps:
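Fluorescence (Ex 390, Em 460) read after a 37° C, 60 min enzyme reaction and a further 30 min developer step at 37° C. Uses recombinant human HDAC6; HDAC1 arm dosed at 100, 1000, 10000 nM.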

T1 sequence (Q13547 whole entry): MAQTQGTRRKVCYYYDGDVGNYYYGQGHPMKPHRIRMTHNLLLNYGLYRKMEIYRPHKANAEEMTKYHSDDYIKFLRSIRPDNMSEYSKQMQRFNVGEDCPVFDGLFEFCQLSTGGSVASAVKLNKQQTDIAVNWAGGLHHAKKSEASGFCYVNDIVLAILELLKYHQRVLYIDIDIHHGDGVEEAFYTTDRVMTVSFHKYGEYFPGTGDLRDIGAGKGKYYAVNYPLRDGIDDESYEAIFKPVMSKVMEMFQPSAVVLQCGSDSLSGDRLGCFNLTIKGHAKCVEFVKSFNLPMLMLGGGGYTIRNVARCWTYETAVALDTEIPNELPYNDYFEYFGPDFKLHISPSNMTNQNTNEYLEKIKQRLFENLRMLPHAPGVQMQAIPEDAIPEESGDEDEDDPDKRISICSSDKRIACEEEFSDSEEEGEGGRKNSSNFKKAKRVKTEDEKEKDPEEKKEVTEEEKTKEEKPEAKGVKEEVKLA

On to `CC(=O)N1CCC(n2c(=O)n(Cc3ccc(-c4nnc(C(F)F)o4)cc3F)c3ccc(Cl)cc32)CC1` [Compound 182, 3-(1-acetylpiperidine-4-yl)-5-chloro-1-(4-(5-(difluoromethyl)-1,3,4-oxadiazole-2-yl)-2-fluorobenzyl)-1,3-dihydro-2H-benzo[d]imidazole-2-one], for which the IC50 (commonly the concentration at which inhibition is half-maximal) was greater than 10000 nM on HDAC1 and 118 nM on HDAC6 human recombinant.

On to `CC(=O)N1CCC(n2c(=O)n(Cc3ccc(-c4nnc(C(F)F)o4)cc3)c3ccc(Cl)cc32)CC1` [Compound 183, 3-(1-acetylpiperidine-4-yl)-5-chloro-1-(4-(5-(difluoromethyl)-1,3,4-oxadiazole-2-yl)benzyl)-1,3-dihydro-2H-benzo[d]imidazole-2-one], for which the IC50 at HDAC1 is greater than 10000 nM; on HDAC6 human recombinant, 73 nM.

On to `CC(=O)N1CCC(n2c(=O)n(Cc3ccc(-c4nnc(C(F)F)o4)cn3)c3ncccc32)CC1` [Compound 184, 1-(1-acetylpiperidine-4-yl)-3-((5-(5-(difluoromethyl)-1,3,4-oxadiazole-2-yl)pyridine-2-yl)methyl)-1,3-dihydro-2H-imidazo[4,5-b]pyridine-2-one], for which the IC50 at HDAC1 is greater than 10000 nM; on HDAC6 human recombinant it was 137 nM.

`CC(=O)N1CCC(n2c(=O)n(Cc3ccc(-c4nnc(C(F)F)o4)cc3F)c3ncccc32)CC1` [Compound 185, 1-(1-acetylpiperidine-4-yl)-3-(4-(5-(difluoromethyl)-1,3,4-oxadiazole-2-yl)-2-fluorobenzyl)-1,3-dihydro-2H-imidazo[4,5-b]pyridine-2-one]: the values for the IC50 on HDAC1 and on HDAC6 human recombinant were greater than 10000 nM and 202 nM, respectively.

As for `CC(=O)N1CCC(n2c(=O)n(Cc3ccc(-c4nnc(C(F)F)o4)cc3)c3ncccc32)CC1` [Compound 186, 1-(1-acetylpiperidine-4-yl)-3-(4-(5-(difluoromethyl)-1,3,4-oxadiazole-2-yl)benzyl)-1,3-dihydro-2H-imidazo[4,5-b]pyridine-2-one], the IC50 on HDAC1 was greater than 10000 nM; at HDAC6 human recombinant, 554 nM.

Turning to `CC(=O)N1CCC(n2c(=O)n(Cc3ccc(-c4nnc(C(F)F)o4)cn3)c3ccccc32)CC1` [Compound 187, 1-(1-acetylpiperidine-4-yl)-3-((5-(5-(difluoromethyl)-1,3,4-oxadiazole-2-yl)pyridine-2-yl)methyl)-1,3-dihydro-2H-benzo[d]imidazole-2-one], the values for the IC50 at HDAC1 and at HDAC6 human recombinant were greater than 10000 nM and 64 nM, respectively.

Turning to `O=c1n(Cc2ccc(-c3nnc(C(F)F)o3)cc2F)c2cc(F)ccc2n1C1CCS(=O)(=O)CC1` [Compound 189, 3-(4-(5-(difluoromethyl)-1,3,4-oxadiazole-2-yl)-2-fluorobenzyl)-1-(1,1-dioxydotetrahydro-2H-thiopyran-4-yl)-5-fluoro-1,3-dihydro-2H-benzo[d]imidazole-2-one], the IC50 was greater than 10000 nM on HDAC1 and 37 nM on HDAC6 human recombinant.

As for `O=c1n(Cc2ccc(-c3nnc(C(F)F)o3)cc2)c2cc(F)ccc2n1C1CCS(=O)(=O)CC1` [Compound 190, 3-(4-(5-(difluoromethyl)-1,3,4-oxadiazole-2-yl)benzyl)-1-(1,1-dioxydotetrahydro-2H-thiopyran-4-yl)-5-fluoro-1,3-dihydro-2H-benzo[d]imidazole-2-one], the IC50 at HDAC1 is greater than 10000 nM; at HDAC6 human recombinant, 46 nM.

With `CS(=O)(=O)N1CCC(n2c(=O)n(Cc3ccc(-c4nnc(C(F)F)o4)cn3)c3c(F)cccc32)CC1` [Compound 191, 3-((5-(5-(difluoromethyl)-1,3,4-oxadiazole-2-yl)pyridine-2-yl)methyl)-4-fluoro-1-(1-(methylsulfonyl)piperidine-4-yl)-1,3-dihydro-2H-benzo[d]imidazole-2-one], the figures for the IC50 at HDAC1 and on HDAC6 human recombinant were greater than 10000 nM and 37 nM, respectively.

On to `CS(=O)(=O)N1CCC(n2c(=O)n(Cc3ccc(-c4nnc(C(F)F)o4)cc3)c3cc(F)ccc32)CC1` [Compound 192, 3-(4-(5-(difluoromethyl)-1,3,4-oxadiazole-2-yl)benzyl)-5-fluoro-1-(1-(methylsulfonyl)piperidine-4-yl)-1,3-dihydro-2H-benzo[d]imidazole-2-one], for which the IC50 was greater than 10000 nM at HDAC1 and 79 nM at HDAC6 human recombinant.

The values above are taken from patent US20230092890A1, “1, 3, 4-Oxadiazole derivative compounds as histone deacetylase 6 inhibitor, and the pharmaceutical composition comprising the same” (Chong Kun Dang Pharmaceutical Corp., priority 2019, published 2023).
